Numbered stars: 1 amine (or outer) side, 2 acyl side, 3 side chain; on linkers, the order of the positions; unused ones are H or OH. Square brackets hold non-standard residues; d marks the D form. Peptide text beside a SMILES is read from it. * marks the point of attachment. X1 = CC(C)[C@H](N[*:1])C(=O)C(F)(F)C(=O)[*:2]; N(Indan-2-yl)Gly = O=C(O)CNC1Cc2ccccc2C1; Cbz = O=C(OCc1ccccc1)*
How the values were obtained:
Cricetinae gen. sp. [1] = test: Inhibition of Elastase-induced pulmonary Hemorrhage(EPH) in Hamsters at a dose of 20 ug/mL; format: functional, Cricetulus griseus
Neutrophil elastase = molecular target: T1, Neutrophil elastase (Homo sapiens, UniProt P08246); test: Inhibitory activity against human leukocyte elastase (HLE) at pH 7.5
T1 sequence (P08246 whole entry): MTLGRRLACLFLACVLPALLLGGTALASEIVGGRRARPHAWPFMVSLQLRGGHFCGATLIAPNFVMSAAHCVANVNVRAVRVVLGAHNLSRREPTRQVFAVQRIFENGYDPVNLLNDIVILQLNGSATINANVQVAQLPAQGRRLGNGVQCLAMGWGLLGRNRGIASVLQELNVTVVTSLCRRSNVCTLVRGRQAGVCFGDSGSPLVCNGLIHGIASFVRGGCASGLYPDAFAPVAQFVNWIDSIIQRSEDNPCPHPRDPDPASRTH

Cricetinae gen. sp. [2] = test: Inhibition of Elastase-induced pulmonary Hemorrhage(EPH) in Hamsters at a dose of 10 ug/mL; format: functional, Cricetulus griseus
Cricetinae gen. sp. [3] = test: Inhibition of Elastase-induced pulmonary Hemorrhage(EPH) in Hamsters at a dose of 3 ug/mL; format: functional, Cricetulus griseus

| SMILES | Max reduction (Cricetinae gen. sp. [1]) [%] | Max reduction (Cricetinae gen. sp. [2]) [%] | also measured |
| --- | --- | --- | --- |
| CCOC(=O)C(F)(F)C(=O)[C@H](CC(C)C)NC(=O)CN(C(=O)[C@@H](NC(=O)c1ccc(C(=O)NS(=O)(=O)c2ccc(Cl)cc2)cc1)C(C)C)C1Cc2ccccc2C1 | 55.2 | – | – |
| COC(=O)[C@H](CCCCNC(=O)C(F)(F)C(=O)[C@@H](NC(=O)CN(C(=O)[C@@H](NC(=O)OCc1ccccc1)C(C)C)C1Cc2ccccc2C1)C(C)C)NC(C)=O | 7.6 | – | – |
| CC(C)[C@H](NC(=O)OCc1ccccc1)C(=O)N(CC(=O)N[C@H](C(=O)C(F)(F)C(=O)O)C(C)C)C1Cc2ccccc2C1 | 55.8 | – | IC50 (Neutrophil elastase): > 5 µM |
| CCOC(=O)C(F)(F)C(=O)[C@H](Cc1ccccc1)NC(=O)CN(C(=O)[C@@H](NC(=O)c1ccc(C(=O)NS(=O)(=O)c2ccc(Cl)cc2)cc1)C(C)C)C1Cc2ccccc2C1 | – | 12.2 | IC50 (Neutrophil elastase): > 5 µM |
| CC(C)C(NC(=O)CN(C(=O)[C@@H](NC(=O)c1ccc(C(=O)NS(=O)(=O)c2ccc(Cl)cc2)cc1)C(C)C)C1Cc2ccccc2C1)C(=O)C(F)(F)F (stereo partly specified) | – | 90.5 | Max reduction (Cricetinae gen. sp. [3]): 58.1% |
| CCOC(=O)C(F)(F)C(=O)[C@@H](NC(=O)CN(C(=O)[C@@H](NC(=O)c1ccc(C(=O)NS(=O)(=O)c2ccc(Cl)cc2)cc1)C(C)C)C1Cc2ccccc2C1)C(C)C | – | 94.6 | – |
| CCOC(=O)C(F)(F)C(=O)[C@@H](NC(=O)CN(C(=O)[C@@H](NC(=O)OCc1ccccc1)C(C)C)C1Cc2ccccc2C1)C(C)C | 51.9 | – | – |
| CCOC(=O)CNC(=O)CNC(=O)C(F)(F)C(=O)[C@@H](NC(=O)CN(C(=O)[C@@H](NC(=O)OCc1ccccc1)C(C)C)C1Cc2ccccc2C1)C(C)C (Cbz-V[N(Indan-2-yl)Gly][X1]GG-OEt) | 33.3 | – | – |
